Here are results for 29 molecules from ChEMBL document CHEMBL1201862, “PubChem BioAssay data set” (2004).

The subject of test [1] is P388/ADR. The experiment in a line: cells. Type of test: functional. Conditions: Mus musculus.
For test [2], the system named is SN12K1. The experiment in a line: cells. Type of test: functional. To be noted: Homo sapiens.
Test [3] has as its system P388. Description: cells. Type of test: functional. To be noted: Mus musculus.
Test [4] can be described thus: A cytotoxicity screen of small molecule inhibitors of the PhoP region in Salmonella typhi identified in the primary screen. [Related pubchem assays: 1850, 1864, 1985 ]. Type of test: functional.
Test [5] relates to Streptococcus sp. 'group A'. Description: growth inhibition of control SK(-) GAS strain, dose response, counter-screen for streptokinase expression inhibitor project, luminescence, kanamycin, BacTiterGlo, confirmation (AID 1900). Type of test: functional, organism-based.
Test [6] concerns the target T1, Leucine aminopeptidase (Plasmodium falciparum 3D7, UniProt Q8IL11).
T1 sequence (Q8IL11 whole entry): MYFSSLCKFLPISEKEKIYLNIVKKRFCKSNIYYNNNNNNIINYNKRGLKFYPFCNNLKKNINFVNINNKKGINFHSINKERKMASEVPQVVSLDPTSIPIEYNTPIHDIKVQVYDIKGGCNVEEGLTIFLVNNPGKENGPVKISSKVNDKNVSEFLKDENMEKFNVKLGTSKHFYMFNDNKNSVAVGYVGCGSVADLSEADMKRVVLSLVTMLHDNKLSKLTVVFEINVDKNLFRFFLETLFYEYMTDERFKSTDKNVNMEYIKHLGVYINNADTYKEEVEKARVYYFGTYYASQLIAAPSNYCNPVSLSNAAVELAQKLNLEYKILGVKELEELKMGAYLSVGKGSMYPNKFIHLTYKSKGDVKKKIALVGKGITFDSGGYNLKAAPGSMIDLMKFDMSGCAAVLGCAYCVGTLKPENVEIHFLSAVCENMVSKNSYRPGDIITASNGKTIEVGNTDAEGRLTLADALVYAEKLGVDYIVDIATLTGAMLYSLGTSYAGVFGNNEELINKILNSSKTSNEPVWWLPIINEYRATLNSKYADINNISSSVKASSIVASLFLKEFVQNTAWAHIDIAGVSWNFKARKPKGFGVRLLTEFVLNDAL
Description: P. falciparum M17LAP inhibitors, primary screen, biochemical, fluorogenic H-Leu-NHMec substrate, 1536-well (AID 1619). It counts as functional.

Test [7] has as its system Streptococcus. The experiment in a line: Group A Streptococcus viability loss, dose response, counter-screen for streptokinase expression inhibitor project, luminescence, BacTiterGlo (AID 1915).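 Note: potency for reduction of bacterial viability or growth.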 Type of test: functional, organism-based. A general note: The purpose of a counterscreen is to sort out artefacts and off-target activity.
Test [8] has as its target T2, Carboxy-terminal domain RNA polymerase II polypeptide A small phosphatase 1 (Homo sapiens, UniProt Q9GZU7).
T2 sequence (Q9GZU7 whole entry): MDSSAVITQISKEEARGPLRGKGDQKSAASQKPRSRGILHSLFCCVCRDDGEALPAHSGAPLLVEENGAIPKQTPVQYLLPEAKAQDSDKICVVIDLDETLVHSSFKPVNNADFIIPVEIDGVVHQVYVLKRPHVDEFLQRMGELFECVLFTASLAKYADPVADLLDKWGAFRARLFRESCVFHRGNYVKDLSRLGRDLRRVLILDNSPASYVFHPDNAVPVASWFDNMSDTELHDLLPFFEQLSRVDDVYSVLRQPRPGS
Description: inhibitors of CTDSP1, concentration-response testing, biochemical assay, absorbance-based, actives from ultra-high-throughput screening (AID 540297). It counts as functional.

For test [9], the system named is H9c2. The experiment in a line: cells. It counts as functional, cell-based. Conditions: Rattus norvegicus, H9c2, Myocardium.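 Note: confirmatory concentration-response retest of ultra-high-throughput screening hits for modulation of myocardial damage; cell death induced by hydrogen peroxide oxidative stress; compound pretreatment for 60 min then peroxide exposure for 2 h; potency is for protecting the cells against peroxide damage rather than for killing them.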
Test [10] addresses T3, Zinc finger protein mex-5 (Caenorhabditis elegans, UniProt Q9XUB2).
T3 sequence (Q9XUB2 whole entry): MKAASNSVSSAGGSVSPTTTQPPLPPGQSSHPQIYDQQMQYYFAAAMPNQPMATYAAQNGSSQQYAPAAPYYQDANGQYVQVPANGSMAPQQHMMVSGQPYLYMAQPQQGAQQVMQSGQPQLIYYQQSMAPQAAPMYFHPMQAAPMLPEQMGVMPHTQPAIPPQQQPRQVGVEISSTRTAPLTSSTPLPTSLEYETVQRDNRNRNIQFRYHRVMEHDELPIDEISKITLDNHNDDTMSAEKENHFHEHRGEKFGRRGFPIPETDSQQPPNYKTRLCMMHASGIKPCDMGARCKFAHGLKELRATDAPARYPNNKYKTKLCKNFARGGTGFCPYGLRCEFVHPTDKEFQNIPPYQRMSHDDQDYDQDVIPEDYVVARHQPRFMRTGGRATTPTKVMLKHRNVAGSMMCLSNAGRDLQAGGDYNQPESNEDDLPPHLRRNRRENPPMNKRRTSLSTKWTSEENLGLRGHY
The experiment in a line: MEX-5/TCR-2 RNA interaction inhibitors, dose response, biochemical, C. elegans, fluorescence polarization (AID 1960). In general terms: Fluorescence polarisation rises when a labelled molecule tumbles more slowly, as on binding a larger partner.

The target of test [11] is T4, RNA-binding protein pos-1 (Caenorhabditis elegans, UniProt G5EF15).
T4 sequence (G5EF15 whole entry): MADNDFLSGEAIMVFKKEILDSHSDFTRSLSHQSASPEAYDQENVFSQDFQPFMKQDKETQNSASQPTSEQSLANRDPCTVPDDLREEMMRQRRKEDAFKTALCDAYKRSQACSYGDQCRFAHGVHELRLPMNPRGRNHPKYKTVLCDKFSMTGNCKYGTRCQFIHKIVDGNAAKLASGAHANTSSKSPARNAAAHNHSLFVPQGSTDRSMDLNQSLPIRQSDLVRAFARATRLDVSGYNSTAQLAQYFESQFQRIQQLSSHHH
The experiment in a line: inhibitors of POS-1/mex-3 RNA binding, dose response, biochemical, fluorescence polarization (AID 1964).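 Note: purified POS-1 fused to maltose binding protein made in E. coli; potency of compounds blocking POS-1 binding to fluorescent RNA.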

The target of test [12] is T5, Corticotropin-releasing factor receptor 2/Corticotropin-releasing factor-binding protein (Homo sapiens, UniProt P24387+Q13324).
T5 sequence (Q13324 whole entry): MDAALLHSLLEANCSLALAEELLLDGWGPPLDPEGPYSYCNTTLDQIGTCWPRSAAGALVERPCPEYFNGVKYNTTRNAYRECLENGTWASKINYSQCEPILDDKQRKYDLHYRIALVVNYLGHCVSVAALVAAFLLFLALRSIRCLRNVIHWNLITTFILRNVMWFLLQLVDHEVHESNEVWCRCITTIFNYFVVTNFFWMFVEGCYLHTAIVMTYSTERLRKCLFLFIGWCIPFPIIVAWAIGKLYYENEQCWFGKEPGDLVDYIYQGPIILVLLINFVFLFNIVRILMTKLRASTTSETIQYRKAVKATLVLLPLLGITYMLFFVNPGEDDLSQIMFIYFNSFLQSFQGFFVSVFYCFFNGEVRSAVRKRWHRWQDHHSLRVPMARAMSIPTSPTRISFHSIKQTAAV
T5 sequence (P24387 whole entry): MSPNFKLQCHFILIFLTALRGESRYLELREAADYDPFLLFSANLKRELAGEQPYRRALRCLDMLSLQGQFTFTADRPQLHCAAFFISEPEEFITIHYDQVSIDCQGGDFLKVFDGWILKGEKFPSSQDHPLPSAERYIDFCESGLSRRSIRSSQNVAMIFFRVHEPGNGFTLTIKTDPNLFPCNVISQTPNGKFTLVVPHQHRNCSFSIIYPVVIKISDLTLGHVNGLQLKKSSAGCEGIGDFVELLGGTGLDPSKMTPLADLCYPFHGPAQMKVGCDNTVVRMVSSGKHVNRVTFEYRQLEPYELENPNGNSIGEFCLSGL
Description: activators of CRF receptor 2 with binding protein – uHTS hits, confirmation (AID 602473). Type of test: functional. To be noted: read-out: EC50_Mean.

The target in test [13] is 26S proteasome non-ATPase regulatory subunit 14 (Homo sapiens, UniProt O00487). Description: inhibition of proteasome subunit RPN11 – biochemical, fluorescence polarization, uHTS hits, confirmation (AID 602368). Type of test: functional.
Test [14] addresses Prothrombin (Bos taurus, UniProt P00735). Description: thrombin inhibition, dose response, biochemical, fluorescence polarization, uHTS hits (AID 602369). Type of test: functional.
The target in test [15] is 72 kDa type IV collagenase (Homo sapiens, UniProt P08253). The experiment in a line: Dose Response validation of uHTS RPN11 inhibitor hits using a MMP-2 Fluorescence assay. Type of test: functional.
Test [16] has as its target Nonstructural protein 1 (Influenza A virus, UniProt Q194T2). Type of test: functional, Influenza A virus (A/California/07/2009(H1N1)).

Activity calls are given as the source filed them.

Chain of 72 kDa type IV collagenase (P08253 whole entry): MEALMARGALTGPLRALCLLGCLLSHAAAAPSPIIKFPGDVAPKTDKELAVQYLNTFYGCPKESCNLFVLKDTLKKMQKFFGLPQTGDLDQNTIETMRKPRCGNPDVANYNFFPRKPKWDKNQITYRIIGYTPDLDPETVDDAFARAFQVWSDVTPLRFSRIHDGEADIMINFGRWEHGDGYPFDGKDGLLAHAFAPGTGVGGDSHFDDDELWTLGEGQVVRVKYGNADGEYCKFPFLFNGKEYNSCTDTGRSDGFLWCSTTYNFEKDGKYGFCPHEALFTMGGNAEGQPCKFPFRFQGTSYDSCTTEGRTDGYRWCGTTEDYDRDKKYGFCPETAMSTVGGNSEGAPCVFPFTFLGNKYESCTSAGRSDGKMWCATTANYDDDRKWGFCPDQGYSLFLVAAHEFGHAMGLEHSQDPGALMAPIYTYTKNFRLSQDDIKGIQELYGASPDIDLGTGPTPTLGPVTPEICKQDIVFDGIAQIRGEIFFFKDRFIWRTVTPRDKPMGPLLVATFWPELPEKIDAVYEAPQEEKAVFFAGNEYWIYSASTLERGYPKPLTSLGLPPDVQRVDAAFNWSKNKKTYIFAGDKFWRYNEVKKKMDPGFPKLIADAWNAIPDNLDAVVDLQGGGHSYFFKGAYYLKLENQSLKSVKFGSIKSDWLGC
Chain of 26S proteasome non-ATPase regulatory subunit 14 (O00487 whole entry): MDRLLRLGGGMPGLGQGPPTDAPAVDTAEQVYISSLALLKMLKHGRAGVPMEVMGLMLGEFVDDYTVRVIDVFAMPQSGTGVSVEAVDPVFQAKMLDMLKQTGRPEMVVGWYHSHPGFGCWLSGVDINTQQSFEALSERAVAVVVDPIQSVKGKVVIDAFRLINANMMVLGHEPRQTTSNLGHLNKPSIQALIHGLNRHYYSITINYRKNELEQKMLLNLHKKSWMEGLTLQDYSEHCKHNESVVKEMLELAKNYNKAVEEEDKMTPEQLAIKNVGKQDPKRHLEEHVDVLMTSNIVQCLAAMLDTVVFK
Chain of Nonstructural protein 1 (Q194T2 whole entry): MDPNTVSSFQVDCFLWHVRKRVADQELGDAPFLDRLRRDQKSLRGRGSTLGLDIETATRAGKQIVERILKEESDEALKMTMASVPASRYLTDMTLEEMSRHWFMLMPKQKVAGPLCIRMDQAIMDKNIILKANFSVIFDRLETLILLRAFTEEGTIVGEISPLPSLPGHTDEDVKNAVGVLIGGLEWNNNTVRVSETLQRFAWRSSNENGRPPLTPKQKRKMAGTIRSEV

As to `Nc1ccc2cc(S(=O)(=O)O)cc(O)c2c1/N=N/c1ccc(NC(=O)Nc2ccc(/N=N/c3c(N)ccc4cc(S(=O)(=O)O)cc(O)c34)c(S(=O)(=O)O)c2)cc1S(=O)(=O)O`, the GI50 in test [1] was 95.5 µM (inactive); in test [2], > 100 µM (inactive); in test [3], 45.2 µM (inactive).
As to `CC(NCc1ccc(Cl)cc1)C(O)c1ccccc1` (configuration not stated), in test [4], the EC50 was > 50 µM (active).
`Cc1nnc(SCC2=C(C(=O)O)N3C(=O)C(NC(=O)Cn4nc(C(F)F)c(Cl)c4C)C3SC2)s1` (configuration not stated): the EC50 is < 60 nM (active) in test [5] and 228 nM (active) in test [7]. Besides, the IC50 in test [6] was 13.9 µM (active).
Consider `NC(=NOC(=O)c1cccc([N+](=O)[O-])c1)c1cccc([N+](=O)[O-])c1`, for which the IC50 in test [8] was 11.2 µM (active).
For `CCc1c(O)cc(=O)n(-c2ccccc2)c1-c1ccccc1`, the IC50 in test [6] was 23.5 µM (active).
As to `CSc1ccc(/C=C(\C(=O)O)c2ccc(S(=O)(=O)N3CCCC3)s2)cc1`, the IC50 in test [8] is 5.2 µM (active).
The same measure, in the same setting: in the case of `C[N@+]12CC[C@H](CC1)C(=C(c1ccccc1)c1ccccc1)C2` it was 3.04 µM (active).
As for `Cc1cccc(-n2ccnc2CN2CCN(C3CCCC3)C(CCO)C2)c1` (configuration not stated), the EC50 in [4] is > 50 µM (active).
As for `C=CCn1c(SCC(=O)NCc2ccc3c(c2)OCO3)nnc1C1COc2ccccc2O1` (configuration not stated), the IC50 in [6] is < 1 µM (active).
In the case of `N=C(NOC(=O)COc1ccc2ccccc2c1)c1ccccn1`, the EC50 in test [4] is > 50 µM (active).
Turning to `COC(=O)c1ccc(NC(S)=NNC(=O)c2ccccc2)cc1`, the EC50 in test [4] is > 50 µM (active).
Take `CCOC(=O)N1CCN(CCC(=O)c2ccc(Br)cc2)CC1`: the EC50 in test [4] was > 50 µM (active).
Regarding `Cc1ccc(-c2nc3cc(C(N)=O)ccc3c(O)c2O)cc1`, the IC50 in test [9] was 11.3 µM (active). The EC50 is 8.44 µM (inconclusive) in test [10] and 7.27 µM (active) in test [11].
In the case of `O=C(Nc1ccc2[nH]c(-c3ccc(Br)o3)nc2c1)c1ccco1`, the EC50 in test [4] is > 50 µM (active).
With `Nc1ccc(/C=C/C(=O)c2ccco2)cc1`, the EC50 in test [12] is 7.4 µM (active). Also, the IC50 in [13] is 18 µM (active); in test [14], 27.5 µM (active); in test [15], > 100 µM (inactive).
With `O=C1Nc2ccc(S(=O)(=O)NCc3ccccn3)c3cccc1c23`, in test [8], the IC50 is 8.42 µM (active).
Take `N/C(=N\O)N/N=C/c1cc2c(cc1Cl)OCO2`: the GI50 in test [1] was 23.7 µM (inactive); in [2], 31.3 µM (inactive); in test [3], 29.3 µM (inactive).
Consider `C=CCN1C(=O)/C(=C\Nc2cccc([N+](=O)[O-])c2)C(=O)N(CCCC)C1=O`, for which the IC50 in test [13] is 34 µM (active); in test [14], 42.7 µM (active); in test [15] it was > 100 µM (inactive).
For `Oc1nc(CSc2nnc(-c3cccnc3)n2C2CCCCC2)nc2ccccc12`, the IC50 in test [9] was 22.1 µM (active).
For the molecule `O=C(COC(=O)c1cncc(Br)c1)Nc1nnc(-c2ccccc2)o1`, the IC50 in [8] is 6.29 µM (active).
`C=CCCC(=O)N1C[C@H]2CON(C)[C@H]2C[C@H]1c1ccc(N2CCCCC2)cc1`: the IC50 in test [13] is 52.2 µM (active); in [14] it was 57.2 µM (active); in test [15], > 100 µM (inactive).
For the molecule `O=C(CCCN1CCC(C(O)c2ccc(F)cc2)CC1)c1ccc(F)cc1` (configuration not stated), the values for the GI50 in test [1], in test [2] and in test [3] were 46.1 µM (inactive), 56.4 µM (inactive) and 38.3 µM (inactive), respectively.
As to `O=CNc1cc(-c2ccc(C(=O)NC3CC3)cc2)cn2c(-c3ccc(F)c(Cl)c3)cnc12`, the IC50 in test [9] is > 79 µM (inactive).
As for `COc1cc(CN2c3ccccc3C(=O)CS2(=O)=O)cc(OC)c1`, the IC50 in [13], in test [14] and in [15] was > 100 µM (inactive) each time.
Regarding `Cc1c2c(cc3c1[nH]c1ccccc13)C(c1ccc(Cl)cc1)=NCC2`, the GI50 is 0.428 µM (active) in test [1], 0.284 µM (active) in test [2] and 0.398 µM (active) in test [3].
As for `Cc1c2cc[n+](C)cc2c(C)c2c1[nH]c1ccccc12`, the GI50 in [1] is 55.5 µM (inactive); in test [2], 0.416 µM (active); in test [3], 0.887 µM (active).
Consider `Cc1cc(N2CCN(C3CCCCC3)CC2)nc2cccc(O)c12`, for which the half-maximal inhibitory concentration (IC50) in test [16] was > 100 µM (active). For the same molecule, the EC50 in test [4] was > 50 µM (active).
Consider `COc1ccc(NC(=O)Cn2c(-c3ccc(OC)cc3)cn(-c3ccc(C)cc3)c2=O)cc1`, for which the IC50 in test [13] was 35.2 µM (active); in test [14], 48.5 µM (active); in test [15] it was > 100 µM (inactive).
For `COc1nc(C(Cl)(Cl)Cl)c(Cl)c(OC)c1Cl` [PENCLOMEDINE], the GI50 was 40.6 µM (inactive) in test [1], 28.3 µM (inactive) in [2] and 8.61 µM (inactive) in test [3].

As usually defined, the GI50 is the concentration giving 50% growth inhibition. One may read the IC50 as the concentration at which inhibition is half-maximal.
